IC50 and melting point data for 14 compounds are collected here from paper PMC6213879, “Synthesis and Biological Evaluation of Novel Dehydroabietic Acid-Oxazolidinone Hybrids for Antitumor Properties” (International Journal of Molecular Sciences, 2018).

Data set [1] has as its system human normal liver cell line LO2. Put plainly: MTT cytotoxicity assay, normal LO2 cells. The conditions noted are these: mean ± SD from three independent experiments. The format is cell-based. The protocol:
(§1) The in vitro antiproliferative activity of the DHAA derivatives 3a–o and 4a–o against four human cancer cell lines (MGC-803 human gastric cancer cell line, CNE-2 human nasopharyngeal carcinoma cell line, SK-OV-3 human ovarian carcinoma cell line, NCI-H460 human lung cancer cell line) and the human normal liver cell line LO2 were evaluated by MTT (methyl thiazolytetrazolium) assay and compared with the parent compound DHAA and the positive control cisplatin in each panel.
(§2) The cytotoxicity of the compounds was evaluated against NCI-H460, MGC-803, SK-OV-3, CNE-2 and LO2 using an MTT assay. Cells were grown on 96-well micro-plates at a density of 4 × 10^3 cells per well in DMEM (dulbecco’s modified eagle medium) medium with 10% FBS (fetal bovine serum). The plates were incubated at 37 °C with 5% CO2. The cells were then exposed to different concentrations of target compounds and cisplatin and incubated for another 48 h. Control wells were formed by culture media with the maximum concentration of DMSO used in each assay (1‰). The cells were stained with 20 µL of MTT in an incubator for about 4 h. The medium was thrown away and replaced by […] DMSO. The absorbance (OD) value was read at 490 nm on an enzyme labeling instrument. Each experiment was repeated at least three times to obtain the mean values.

Data set [2] concerns CNE-2 human nasopharyngeal carcinoma cell line. Put plainly: MTT cytotoxicity assay, CNE-2. It is filed as cell-based. The note with it: mean ± SD from three independent experiments. The protocol: as §1, §2
In general terms: Tetrazolium assays rely on reduction of a dye to a coloured formazan, in cell work by metabolically active cells.

For data set [3], the system named is SK-OV-3 human ovarian carcinoma cell line. The data set is described as follows: MTT cytotoxicity assay, SK-OV-3. It is filed as cell-based. The conditions noted are these: mean ± SD from three independent experiments. The protocol: as §1, §2
Data set [4] deals with MGC-803 human gastric cancer cell line. The data set is described as follows: MTT cytotoxicity assay, MGC-803. The note with it: mean ± SD from three independent experiments. The format is cell-based. The protocol:
as §1, §2

In data set [5] the test system is NCI-H460 human lung cancer cell line. Put plainly: MTT cytotoxicity assay, NCI-H460. The format is cell-based. The conditions noted are these: mean ± SD from three independent experiments. As for the experimental part: as §1, §2

Usually IC50 stands for the concentration that inhibits the measured activity by half. Low readings indicate inhibition by little substance, high ones a need for much substance. Take `Cc1cccc(N2CC(COC(=O)[C@]3(C)CCC[C@]4(C)c5ccc(C(C)C)cc5CCC34)OC2=O)c1` (stereo partly drawn) [Compound 4c, (1R,4aS)-(3-(3-Methylphenyl)-2-Oxooxazolidin-5-yl)Methyl-7-Isopropyl-1,4a-Dimethyl-1,2,3,4,4a,9,10,10a-Octahydrophenanthrene-1-Carboxylate]: the IC50 was 36.2 ± 2.68 µM in data set [1] (Homo sapiens, L02, 48 h); 31.96 ± 0.23 µM in data set [2] (Homo sapiens, CNE-2, 48 h); greater than 100 µM in data set [3] (Homo sapiens, SK-OV-3, 48 h); 10.5 ± 1.44 µM in data set [4] (Homo sapiens, MGC-803, 48 h); 9.13 ± 2.77 µM in data set [5] (Homo sapiens, NCI-H460, 48 h).
Turning to `Cc1ccc(N2CC(COC(=O)[C@]3(C)CCC[C@]4(C)c5ccc(C(C)C)cc5CCC34)OC2=O)cc1` (stereo partly drawn) [Compound 4d, (1R,4aS)-(3-(4-Methylphenyl)-2-Oxooxazolidin-5-yl)Methyl-7-Isopropyl-1,4a-Dimethyl-1,2,3,4,4a,9,10,10a-Octahydrophenanthrene-1-Carboxylate], the IC50 stood at 30.6 ± 1.99 µM in data set [1] (Homo sapiens, L02, 48 h); 21.1 ± 1.96 µM in data set [2] (Homo sapiens, CNE-2, 48 h); 19.7 ± 1.33 µM in data set [3] (Homo sapiens, SK-OV-3, 48 h); 5.97 ± 0.87 µM in data set [4] (Homo sapiens, MGC-803, 48 h); 2.91 ± 2.38 µM in data set [5] (Homo sapiens, NCI-H460, 48 h).
Consider `COc1ccccc1N1CC(COC(=O)[C@]2(C)CCC[C@]3(C)c4ccc(C(C)C)cc4CCC23)OC1=O` (stereo partly drawn) [Compound 4e, (1R,4aS)-(3-(2-Methoxyphenyl)-2-Oxooxazolidin-5-yl)Methyl-7-Isopropyl-1,4a-Dimethyl-1,2,3,4,4a,9,10,10a-Octahydrophenanthrene-1-Carboxylate], for which the IC50 in data set [1] (Homo sapiens, L02, 48 h) is 40.6 ± 1.96 µM; in data set [2] (Homo sapiens, CNE-2, 48 h), 20.5 ± 0.97 µM; in data set [3] (Homo sapiens, SK-OV-3, 48 h), greater than 100 µM; in data set [4] (Homo sapiens, MGC-803, 48 h), 13.2 ± 1.15 µM; in data set [5] (Homo sapiens, NCI-H460, 48 h), 7.99 ± 6.35 µM.
Turning to `COc1cccc(N2CC(COC(=O)[C@]3(C)CCC[C@]4(C)c5ccc(C(C)C)cc5CCC34)OC2=O)c1` (stereo partly drawn) [Compound 4f, (1R,4aS)-(3-(3-Methoxyphenyl)-2-Oxooxazolidin-5-yl)Methyl-7-Isopropyl-1,4a-Dimethyl-1,2,3,4,4a,9,10,10a-Octahydrophenanthrene-1-Carboxylate], the IC50 in data set [1] (Homo sapiens, L02, 48 h) was greater than 100 µM; in data set [2] (Homo sapiens, CNE-2, 48 h), 23.5 ± 1.2 µM; in data set [3] (Homo sapiens, SK-OV-3, 48 h), 43 ± 1.05 µM; in data set [4] (Homo sapiens, MGC-803, 48 h), 19.7 ± 2.8 µM; in data set [5] (Homo sapiens, NCI-H460, 48 h) it was 17.2 ± 1.38 µM.
Turning to `COc1ccc(N2CC(COC(=O)[C@]3(C)CCC[C@]4(C)c5ccc(C(C)C)cc5CCC34)OC2=O)cc1` (stereo partly drawn) [Compound 4g, (1R,4aS)-(3-(4-Methoxyphenyl)-2-Oxooxazolidin-5-yl)Methyl-7-Isopropyl-1,4a-Dimethyl-1,2,3,4,4a,9,10,10a-Octahydrophenanthrene-1-Carboxylate], the IC50 in data set [1] (Homo sapiens, L02, 48 h) is 26.36 ± 0.15 µM; in data set [2] (Homo sapiens, CNE-2, 48 h), 19.8 ± 0.3 µM; in data set [3] (Homo sapiens, SK-OV-3, 48 h), 4.1 ± 2.45 µM; in data set [4] (Homo sapiens, MGC-803, 48 h), 6.1 ± 0.35 µM; in data set [5] (Homo sapiens, NCI-H460, 48 h), 14.1 ± 8.04 µM.
In the same order, the values of `CC(C)c1ccc2c(c1)CCC1[C@](C)(C(=O)OCC3CN(c4ccccc4F)C(=O)O3)CCC[C@]21C` (stereo partly drawn) [Compound 4h, (1R,4aS)-(3-(2-Fluorophenyl)-2-Oxooxazolidin-5-yl)Methyl-7-Isopropyl-1,4a-Dimethyl-1,2,3,4,4a, 9,10,10a-Octahydrophenanthrene-1-Carboxylate] are greater than 100 µM, greater than 100 µM, greater than 100 µM, 49.9 ± 1.14 µM and greater than 100 µM.
In the same order, the values of `CC(C)c1ccc2c(c1)CCC1[C@](C)(C(=O)OCC3CN(c4cccc(F)c4)C(=O)O3)CCC[C@]21C` (stereo partly drawn) [Compound 4i, (1R,4aS)-(3-(3-Fluorophenyl)-2-Oxooxazolidin-5-yl)Methyl-7-Isopropyl-1,4a-Dimethyl-1,2,3,4,4a, 9,10,10a-Octahydrophenanthrene-1-Carboxylate] are greater than 100 µM, 28 ± 3.95 µM, 9.86 ± 4.3 µM, 11.5 ± 0.25 µM and 25.1 ± 4.5 µM.
As for `CC(C)c1ccc2c(c1)CCC1[C@](C)(C(=O)OCC3CN(c4cccc(Cl)c4)C(=O)O3)CCC[C@]21C` (stereo partly drawn) [Compound 4k, (1R,4aS)-(3-(3-Chlorophenyl)-2-Oxooxazolidin-5-yl)Methyl-7-Isopropyl-1,4a-Dimethyl-1,2,3,4,4a,9,10,10a-Octahydrophenanthrene-1-Carboxylate], the IC50 in data set [1] (Homo sapiens, L02, 48 h) was 37.2 ± 3.14 µM; in data set [2] (Homo sapiens, CNE-2, 48 h), 31.2 ± 2.5 µM; in data set [3] (Homo sapiens, SK-OV-3, 48 h) it was 10.3 ± 5.46 µM; in data set [4] (Homo sapiens, MGC-803, 48 h), 7.43 ± 1.42 µM; in data set [5] (Homo sapiens, NCI-H460, 48 h) it was 23 ± 2.62 µM.
By melting point is commonly meant the temperature, or range, at which the solid turns liquid. `CC(C)c1ccc2c(c1)CCC1[C@](C)(C(=O)OCC3CN(c4ccc(Cl)cc4)C(=O)O3)CCC[C@]21C` (stereo partly drawn) [Compound 4l, (1R,4aS)-(3-(4-Chlorophenyl)-2-Oxooxazolidin-5-yl)Methyl-7-Isopropyl-1,4a-Dimethyl-1,2,3,4,4a,9,10,10a-Octahydrophenanthrene-1-Carboxylate] had a melting point of 170.6 to 172.5 °C. Moreover, the IC50 in data set [1] (Homo sapiens, L02, 48 h) came out at 44.5 ± 2.77 µM. Besides, it took 27.6 ± 1.5 µM to reach half-maximal inhibition in data set [2] (Homo sapiens, CNE-2, 48 h) (IC50). The compound also had an IC50 in data set [3] (Homo sapiens, SK-OV-3, 48 h) of 15.7 ± 2.32 µM. Further, in data set [4] (Homo sapiens, MGC-803, 48 h), the IC50 came out at 5.82 ± 4.82 µM. The same compound came in with an IC50 in data set [5] (Homo sapiens, NCI-H460, 48 h) of 26.55 ± 0.08 µM.
On to `CC(C)c1ccc2c(c1)CCC1[C@](C)(C(=O)OCC3CN(c4cccc(Br)c4)C(=O)O3)CCC[C@]21C` (stereo partly drawn) [Compound 4m, (1R,4aS)-(3-(3-Bromophenyl)-2-Oxooxazolidin-5-yl)Methyl-7-Isopropyl-1,4a-Dimethyl-1,2,3,4,4a,9,10,10a-Octahydrophenanthrene-1-Carboxylate], for which the IC50 in data set [1] (Homo sapiens, L02, 48 h) was 34.2 ± 2.88 µM; in data set [2] (Homo sapiens, CNE-2, 48 h), greater than 100 µM; in data set [3] (Homo sapiens, SK-OV-3, 48 h) it was greater than 100 µM; in data set [4] (Homo sapiens, MGC-803, 48 h), 9.8 ± 2.37 µM; in data set [5] (Homo sapiens, NCI-H460, 48 h), 25.1 ± 1.39 µM.
`CC(C)c1ccc2c(c1)CCC1[C@](C)(C(=O)OCC3CN(c4ccc(Br)cc4)C(=O)O3)CCC[C@]21C` (stereo partly drawn) [Compound 4n, (1R,4aS)-(3-(4-Bromophenyl)-2-Oxooxazolidin-5-yl)Methyl-7-Isopropyl-1,4a-Dimethyl-1,2,3,4,4a,9,10,10a-Octahydrophenanthrene-1-Carboxylate]: the IC50 in data set [1] (Homo sapiens, L02, 48 h) was greater than 100 µM; in data set [2] (Homo sapiens, CNE-2, 48 h), 42.5 ± 5.68 µM; in data set [3] (Homo sapiens, SK-OV-3, 48 h) it was greater than 100 µM; in data set [4] (Homo sapiens, MGC-803, 48 h), 5.34 ± 3.45 µM; in data set [5] (Homo sapiens, NCI-H460, 48 h), 30.2 ± 2.66 µM.
`C#Cc1cccc(N2CC(COC(=O)[C@]3(C)CCC[C@]4(C)c5ccc(C(C)C)cc5CCC34)OC2=O)c1` (stereo partly drawn) [Compound 4o, (1R,4aS)-(3-(3-Ehynylphenyl)-2-Oxooxazolidin-5-yl)Methyl-7-Isopropyl-1,4a-Dimethyl-1,2,3,4,4a,9,10,10a-Octahydrophenanthrene-1-Carboxylate] returned a melting point of 125.2 to 130.4 °C. In data set [1] (Homo sapiens, L02, 48 h), this compound had an IC50 greater than 100 µM. Also, the midpoint of inhibition in data set [2] (Homo sapiens, CNE-2, 48 h), the IC50, lay at 51.4 ± 5.06 µM. Besides, the IC50 in data set [3] (Homo sapiens, SK-OV-3, 48 h) came out at 23.7 ± 2.02 µM. In data set [4] (Homo sapiens, MGC-803, 48 h), this compound registered an IC50 of 18.2 ± 2.36 µM. For the same compound, in data set [5] (Homo sapiens, NCI-H460, 48 h), the IC50 turned out to be 72.4 ± 1.07 µM.
With `CC(C)c1ccc2c(c1)CC[C@H]1[C@](C)(C(=O)O)CCC[C@]21C` [DHA, Dehydroabietic acid], the IC50 in data set [1] (Homo sapiens, L02, 48 h) was greater than 100 µM; in data set [2] (Homo sapiens, CNE-2, 48 h), 62.6 ± 1.6 µM; in data set [3] (Homo sapiens, SK-OV-3, 48 h), greater than 100 µM; in data set [4] (Homo sapiens, MGC-803, 48 h), 29.8 ± 2.06 µM; in data set [5] (Homo sapiens, NCI-H460, 48 h), greater than 100 µM.
For the compound `N.N.[Cl][Pt][Cl]` [cisplatin, reference compound], the IC50 was 36.4 ± 0.79 µM in data set [1] (48 h); 21 ± 2.25 µM in data set [2] (48 h); 10.4 ± 0.25 µM in data set [3] (48 h); 14.9 ± 1.78 µM in data set [4] (48 h); 24.1 ± 1.74 µM in data set [5] (48 h).
